In patent publication US20260206755A1, “COMPOUNDS AND COMPOSITIONS HAVING KNOCK-DOWN OR BLOOD FEED INHIBITION ACTIVITY AGAINST INSECT PESTS” (priority 2017, published 2026):
Like-named read-outs stand apart in the source and are kept apart here.

Tested on: Anopheles stephensi
Experiment: Anopheles stephensi treated well plate contact test: knockdown and mortality
Assay type: in vivo
In short: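 Well surfaces coated with ethanol solution of compound at a defined concentration, alone or with 2 ppm TFNA-AM, then dried. Five non-blood-fed 2–5-day-old adult females per well, fed 10% sucrose; knockdown scored at 1 hour, mortality at 24 and 48 hours, replicate means reported.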

[1] = Anopheles stephensi, test compound 0.2 ppm, without TFNA-AM, after 24 hours, read-out: mortality % 24, without TFNA-AM
[2] = Anopheles stephensi, test compound 0.2 ppm, without TFNA-AM, after 48 hours, read-out: mortality % 48, without TFNA-AM
[3] = Anopheles stephensi, test compound 0.2 ppm, without TFNA-AM, knockdown after 1 hour, read-out: Knock Down, without TFNA-AM
[4] = Anopheles stephensi, test compound 2 ppm, without TFNA-AM, after 24 hours, read-out: mortality % 24, without TFNA-AM
[5] = Anopheles stephensi, test compound 2 ppm, without TFNA-AM, after 48 hours, read-out: mortality % 48, without TFNA-AM
[6] = Anopheles stephensi, test compound 2 ppm, without TFNA-AM, knockdown after 1 hour, read-out: Knock Down, without TFNA-AM
[7] = Anopheles stephensi, test compound 20 ppm, without TFNA-AM, after 24 hours, read-out: mortality % 24, without TFNA-AM
[8] = Anopheles stephensi, test compound 20 ppm, without TFNA-AM, after 48 hours, read-out: mortality % 48, without TFNA-AM
[9] = Anopheles stephensi, test compound 20 ppm, without TFNA-AM, knockdown after 1 hour, read-out: Knock Down, without TFNA-AM
[10] = Anopheles stephensi, test compound 200 ppm, without TFNA-AM, after 24 hours, read-out: mortality % 24, without TFNA-AM
[11] = Anopheles stephensi, test compound 200 ppm, without TFNA-AM, after 48 hours, read-out: mortality % 48, without TFNA-AM
[12] = Anopheles stephensi, test compound 200 ppm, without TFNA-AM, knockdown after 1 hour, adult females, read-out: Knock Down, without TFNA-AM
[13] = test compound 0.2 ppm plus 2 ppm TFNA-AM, after 24 hours
[14] = test compound 0.2 ppm plus 2 ppm TFNA-AM, after 48 hours
[15] = test compound 0.2 ppm plus 2 ppm TFNA-AM, knockdown after 1 hour
[16] = test compound 2 ppm plus 2 ppm TFNA-AM, after 48 hours
[17] = test compound 2 ppm plus 2 ppm TFNA-AM, knockdown after 1 hour
[18] = test compound 20 ppm plus 2 ppm TFNA-AM, after 24 hours
[19] = test compound 20 ppm plus 2 ppm TFNA-AM, after 48 hours
[20] = test compound 20 ppm plus 2 ppm TFNA-AM, knockdown after 1 hour
[21] = test compound 200 ppm plus 2 ppm TFNA-AM, after 24 hours
[22] = test compound 200 ppm plus 2 ppm TFNA-AM, after 48 hours
[23] = test compound 200 ppm plus 2 ppm TFNA-AM, knockdown after 1 hour
[24] = test compound 2 ppm plus 2 ppm TFNA-AM, after 24 hours
[25] = Anopheles stephensi, 24 h, read-out: mortality % 24, without TFNA-AM
[26] = Anopheles stephensi, 48 h, read-out: mortality % 48, without TFNA-AM

CO/C=C(/C(=O)OC)c1ccccc1COc1cc(C(F)(F)F)nc(OC(C)C)n1 [Fluacrypyrim]
mortality at 0.2 ppm [1]: 0%
mortality at 0.2 ppm [2]: 0%
pest or weed control at 0.2 ppm [3]: 0%
mortality at 2 ppm [4]: 0%
mortality at 2 ppm [5]: 0%
pest or weed control at 2 ppm [6]: 0%
mortality at 20 ppm [7]: 0%
mortality at 20 ppm [8]: 0%
pest or weed control at 20 ppm [9]: 0%
mortality at 200 ppm [10]: 20%
mortality at 200 ppm [11]: 80%
pest or weed control at 200 ppm [12]: 0%
mortality % 24, with TFNA-AM [13]: 60%
mortality % 48, with TFNA-AM [14]: 40%
Knock Down, with TFNA-AM [15]: 100%
mortality % 48, with TFNA-AM [16]: 100%
Knock Down, with TFNA-AM [17]: 100%
mortality % 24, with TFNA-AM [18]: 100%
mortality % 48, with TFNA-AM [19]: 100%
Knock Down, with TFNA-AM [20]: 100%
mortality % 24, with TFNA-AM [21]: 100%
mortality % 48, with TFNA-AM [22]: 100%
Knock Down, with TFNA-AM [23]: 100%

O=[N+]([O-])c1cc(C(F)(F)F)c(Cl)c([N+](=O)[O-])c1Nc1ncc(C(F)(F)F)cc1Cl [Fluazinam]
mortality at 0.2 ppm [1]: 0%
mortality at 0.2 ppm [2]: 0%
pest or weed control at 0.2 ppm [3]: 0%
mortality at 2 ppm [4]: 0%
mortality at 2 ppm [5]: 0%
pest or weed control at 2 ppm [6]: 0%
mortality at 20 ppm [7]: 70%
mortality at 20 ppm [8]: 80%
pest or weed control at 20 ppm [9]: 20%
mortality at 200 ppm [10]: 90%
mortality at 200 ppm [11]: 90%
pest or weed control at 200 ppm [12]: 20%
mortality % 24, with TFNA-AM [13]: 30%
mortality % 48, with TFNA-AM [14]: 20%
Knock Down, with TFNA-AM [15]: 100%
mortality % 24, with TFNA-AM [24]: 30%
mortality % 48, with TFNA-AM [16]: 20%
Knock Down, with TFNA-AM [17]: 100%
mortality % 24, with TFNA-AM [18]: 100%
mortality % 48, with TFNA-AM [19]: 100%
Knock Down, with TFNA-AM [20]: 100%
mortality % 24, with TFNA-AM [21]: 100%
mortality % 48, with TFNA-AM [22]: 100%
Knock Down, with TFNA-AM [23]: 100%

Cc1cc(C(F)(C(F)(F)F)C(F)(F)F)ccc1NC(=O)c1cccc(I)c1C(=O)NC(C)(C)CS(C)(=O)=O [Flubendiamide]
mortality at 0.2 ppm [1]: 0%
mortality at 0.2 ppm [2]: 0%
pest or weed control at 0.2 ppm [3]: 0%
mortality at 2 ppm [4]: 0%
mortality at 2 ppm [5]: 0%
pest or weed control at 2 ppm [6]: 0%
mortality at 20 ppm [7]: 0%
mortality at 20 ppm [8]: 0%
pest or weed control at 20 ppm [9]: 0%
mortality at 200 ppm [10]: 0%
mortality at 200 ppm [11]: 0%
pest or weed control at 200 ppm [12]: 0%
mortality % 24, with TFNA-AM [13]: 80%
mortality % 48, with TFNA-AM [14]: 40%
Knock Down, with TFNA-AM [15]: 100%
mortality % 24, with TFNA-AM [24]: 80%
mortality % 48, with TFNA-AM [16]: 40%
Knock Down, with TFNA-AM [17]: 100%
mortality % 24, with TFNA-AM [18]: 80%
mortality % 48, with TFNA-AM [19]: 40%
Knock Down, with TFNA-AM [20]: 100%
mortality % 24, with TFNA-AM [21]: 60%
mortality % 48, with TFNA-AM [22]: 40%
Knock Down, with TFNA-AM [23]: 100%

O=C1C=C(N(Cc2ccc(Cl)nc2)CC(F)F)CO1 [Flupyradifurone]
mortality % 24, with TFNA-AM [13]: 10%
mortality % 48, with TFNA-AM [14]: 0%
Knock Down, with TFNA-AM [15]: 100%
mortality % 24, without TFNA-AM (test compound 0.2 ppm, without TFNA-AM, after 24 hours): 0%
mortality % 48, without TFNA-AM (test compound 0.2 ppm, without TFNA-AM, after 48 hours): 0%
Knock Down, without TFNA-AM (test compound 0.2 ppm, without TFNA-AM, knockdown after 1 hour): 0%
mortality % 24, with TFNA-AM [24]: 20%
mortality % 48, with TFNA-AM [16]: 20%
Knock Down, with TFNA-AM [17]: 100%
mortality % 24, without TFNA-AM (test compound 2 ppm, without TFNA-AM, after 24 hours): 0%
mortality % 48, without TFNA-AM (test compound 2 ppm, without TFNA-AM, after 48 hours): 0%
Knock Down, without TFNA-AM (test compound 2 ppm, without TFNA-AM, knockdown after 1 hour): 0%
mortality % 24, with TFNA-AM [18]: 50%
mortality % 48, with TFNA-AM [19]: 60%
Knock Down, with TFNA-AM [20]: 100%
mortality % 24, without TFNA-AM (test compound 20 ppm, without TFNA-AM, after 24 hours): 0%
mortality % 48, without TFNA-AM (test compound 20 ppm, without TFNA-AM, after 48 hours): 10%
Knock Down, without TFNA-AM (test compound 20 ppm, without TFNA-AM, knockdown after 1 hour): 0%
mortality % 24, with TFNA-AM [21]: 70%
mortality % 48, with TFNA-AM [22]: 90%
Knock Down, with TFNA-AM [23]: 100%
mortality % 24, without TFNA-AM (test compound 200 ppm, without TFNA-AM, after 24 hours): 20%
mortality % 48, without TFNA-AM (test compound 200 ppm, without TFNA-AM, after 48 hours): 30%
Knock Down, without TFNA-AM (test compound 200 ppm, without TFNA-AM, knockdown after 1 hour, adult females): 0%

O=[N+]([O-])NC1=NCCN1Cc1ccc(Cl)nc1 [Imidacloprid]
mortality at 0.2 ppm [1]: 0%
mortality at 0.2 ppm [2]: 0%
pest or weed control at 0.2 ppm [3]: 0%
mortality at 2 ppm [4]: 20%
mortality at 2 ppm [5]: 20%
pest or weed control at 2 ppm [6]: 0%
mortality at 20 ppm [7]: 20%
mortality at 20 ppm [8]: 60%
pest or weed control at 20 ppm [9]: 0%
mortality at 200 ppm [10]: 40%
mortality at 200 ppm [11]: 60%
pest or weed control at 200 ppm [12]: 40%
mortality % 48, with TFNA-AM [14]: 0%
Knock Down, with TFNA-AM [15]: 100%
mortality % 24, with TFNA-AM [24]: 100%
mortality % 48, with TFNA-AM [16]: 100%
Knock Down, with TFNA-AM [17]: 100%
mortality % 24, with TFNA-AM [18]: 100%
mortality % 48, with TFNA-AM [19]: 100%
Knock Down, with TFNA-AM [20]: 100%
mortality % 24, with TFNA-AM [21]: 100%
mortality % 48, with TFNA-AM [22]: 100%
Knock Down, with TFNA-AM [23]: 100%

CCOC(=O)CC(SP(=S)(OC)OC)C(=O)OCC (stereo not shown) [Malathion]
mortality at 0.02 ppm [25]: 0%
mortality at 0.2 ppm [25]: 0%
mortality at 2 ppm [25]: 100%
mortality at 20 ppm [25]: 100%
mortality at 0.02 ppm [26]: 0%
mortality at 0.2 ppm [26]: 0%
mortality at 2 ppm [26]: 100%
mortality at 20 ppm [26]: 100%
pest or weed control at 0.02 ppm (Anopheles stephensi, test compound 0.02 ppm, without TFNA-AM, knockdown after 1 hour, read-out: Knock Down, without TFNA-AM): 20%
pest or weed control at 0.2 ppm [3]: 20%
pest or weed control at 2 ppm [6]: 40%
pest or weed control at 20 ppm [9]: 40%
mortality % 24, with TFNA-AM (test compound 0.02 ppm plus 2 ppm TFNA-AM, after 24 hours): 0%
mortality % 48, with TFNA-AM (test compound 0.02 ppm plus 2 ppm TFNA-AM, after 48 hours): 0%
Knock Down, with TFNA-AM (test compound 0.02 ppm plus 2 ppm TFNA-AM, knockdown after 1 hour): 100%
mortality % 24, with TFNA-AM [13]: 0%
mortality % 48, with TFNA-AM [14]: 0%
Knock Down, with TFNA-AM [15]: 100%
mortality % 24, with TFNA-AM [24]: 100%
mortality % 48, with TFNA-AM [16]: 100%
Knock Down, with TFNA-AM [17]: 100%
mortality % 24, with TFNA-AM [18]: 100%
mortality % 48, with TFNA-AM [19]: 100%
Knock Down, with TFNA-AM [20]: 100%
